Measured values taken from the supplement of paper PMC11451515.

Test system: P12-Ichikawa
Assay: cell viability relative to DMSO control; higher = less cytotoxic
Conditions: 48 h
Procedure, shortened: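 Viability, reported as a per-plate percentage of DMSO wells with cell-free wells as background, came from CellTiter-Glo One luminescence. Reading took place after 48 h at 37°C. Before that, NOMO1 or SEM (500 cells/well) or P12-Ichikawa (1000 cells/well) leukemia cells, adapted for at least four passages in each medium, were seeded in 1536-well plates (5 μl) and pin-dosed with library compounds in DMSO, 47 μM to 0.79 nM over 11 threefold points.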

[1] = HPLM + 10% dialyzed FBS, 0.000781 µM
[2] = HPLM + 10% dialyzed FBS, 0.00234 µM
[3] = HPLM + 10% dialyzed FBS, 0.00702 µM
[4] = HPLM + 10% dialyzed FBS, 0.0211 µM
[5] = HPLM + 10% dialyzed FBS, 0.0632 µM
[6] = HPLM + 10% dialyzed FBS, 0.19 µM
[7] = HPLM + 10% dialyzed FBS, 0.569 µM
[8] = HPLM + 10% dialyzed FBS, 1.71 µM
[9] = HPLM + 10% dialyzed FBS, 5.12 µM
[10] = HPLM + 10% dialyzed FBS, 15.4 µM
[11] = HPLM + 10% dialyzed FBS, 46.1 µM
[12] = RPMI 5 mM glucose + 10% FBS, 0.000781 µM
[13] = RPMI 5 mM glucose + 10% FBS, 0.00234 µM
[14] = RPMI 5 mM glucose + 10% FBS, 0.00702 µM
[15] = RPMI 5 mM glucose + 10% FBS, 0.0211 µM
[16] = RPMI 5 mM glucose + 10% FBS, 0.0632 µM
[17] = RPMI 5 mM glucose + 10% FBS, 0.19 µM
[18] = RPMI 5 mM glucose + 10% FBS, 0.569 µM
[19] = RPMI 5 mM glucose + 10% FBS, 1.71 µM
[20] = RPMI 5 mM glucose + 10% FBS, 5.12 µM
[21] = RPMI 5 mM glucose + 10% FBS, 15.4 µM
[22] = RPMI 5 mM glucose + 10% FBS, 46.1 µM
[23] = RPMI 5 mM glucose + 10% dialyzed FBS, 0.000781 µM
[24] = RPMI 5 mM glucose + 10% dialyzed FBS, 0.00234 µM
[25] = RPMI 5 mM glucose + 10% dialyzed FBS, 0.00702 µM
[26] = RPMI 5 mM glucose + 10% dialyzed FBS, 0.0211 µM
[27] = RPMI 5 mM glucose + 10% dialyzed FBS, 0.0632 µM
[28] = RPMI 5 mM glucose + 10% dialyzed FBS, 0.19 µM
[29] = RPMI 5 mM glucose + 10% dialyzed FBS, 0.569 µM
[30] = RPMI 5 mM glucose + 10% dialyzed FBS, 1.71 µM
[31] = RPMI 5 mM glucose + 10% dialyzed FBS, 5.12 µM
[32] = RPMI 5 mM glucose + 10% dialyzed FBS, 15.4 µM
[33] = RPMI 5 mM glucose + 10% dialyzed FBS, 46.1 µM

## C[C@H](NC(=O)C(=O)Nc1ccccc1C(C)(C)C)C(=O)N[C@@H](CC(=O)O)C(=O)COc1c(F)c(F)cc(F)c1F
[1]
  cell viability: 107%
[2]
  cell viability: 120%
[3]
  cell viability: 122%
[4]
  cell viability: 130%
[5]
  cell viability: 125%
[6]
  cell viability: 124%
[7]
  cell viability: 130%
[8]
  cell viability: 129%
[9]
  cell viability: 120%
[10]
  cell viability: 88.7%
[11]
  cell viability: 4.89%
[12]
  cell viability: 101%
[13]
  cell viability: 131%
[14]
  cell viability: 124%
[15]
  cell viability: 120%
[16]
  cell viability: 133%
[17]
  cell viability: 128%
[18]
  cell viability: 126%
[19]
  cell viability: 122%
[20]
  cell viability: 121%
[21]
  cell viability: 56.4%
[22]
  cell viability: 4.69%
[23]
  cell viability: 102%
[24]
  cell viability: 111%
[25]
  cell viability: 112%
[26]
  cell viability: 127%
[27]
  cell viability: 124%
[28]
  cell viability: 130%
[29]
  cell viability: 128%
[30]
  cell viability: 126%
[31]
  cell viability: 107%
[32]
  cell viability: 58.9%
[33]
  cell viability: 4.53%

## CC/1=C/N([C@@H]2C[C@@H](O)[C@H](CO)O2)C(=O)NC1=O
[1]
  cell viability: 93.7%
[2]
  cell viability: 89.4%
[3]
  cell viability: 96.2%
[4]
  cell viability: 85.5%
[5]
  cell viability: 78.7%
[6]
  cell viability: 83.4%
[7]
  cell viability: 91.7%
[8]
  cell viability: 86.1%
[9]
  cell viability: 73.7%
[10]
  cell viability: 74.2%
[11]
  cell viability: 8.14%
[12]
  cell viability: 75.2%
[13]
  cell viability: 86.7%
[14]
  cell viability: 83.5%
[15]
  cell viability: 85.8%
[16]
  cell viability: 65.9%
[17]
  cell viability: 80.7%
[18]
  cell viability: 90.2%
[19]
  cell viability: 76%
[20]
  cell viability: 62.3%
[21]
  cell viability: 69.5%
[22]
  cell viability: 6.95%
[23]
  cell viability: 76.3%
[24]
  cell viability: 84.6%
[25]
  cell viability: 79.8%
[26]
  cell viability: 75.9%
[27]
  cell viability: 61.6%
[28]
  cell viability: 73.3%
[29]
  cell viability: 81.8%
[30]
  cell viability: 81%
[31]
  cell viability: 61%
[32]
  cell viability: 64.3%
[33]
  cell viability: 12.2%

## Cc1ccc(-n2nc(C(C)(C)C)cc2NC(=O)Nc2ccc(OCCN3CCOCC3)c3ccccc23)cc1
[1]
  cell viability: 106%
[2]
  cell viability: 112%
[3]
  cell viability: 113%
[4]
  cell viability: 115%
[5]
  cell viability: 111%
[6]
  cell viability: 117%
[7]
  cell viability: 119%
[8]
  cell viability: 126%
[9]
  cell viability: 114%
[10]
  cell viability: 109%
[11]
  cell viability: 102%
[12]
  cell viability: 106%
[13]
  cell viability: 107%
[14]
  cell viability: 103%
[15]
  cell viability: 97.7%
[16]
  cell viability: 113%
[17]
  cell viability: 112%
[18]
  cell viability: 113%
[19]
  cell viability: 117%
[20]
  cell viability: 112%
[21]
  cell viability: 88.7%
[22]
  cell viability: 85.2%
[23]
  cell viability: 105%
[24]
  cell viability: 100%
[25]
  cell viability: 112%
[26]
  cell viability: 121%
[27]
  cell viability: 109%
[28]
  cell viability: 116%
[29]
  cell viability: 125%
[30]
  cell viability: 126%
[31]
  cell viability: 116%
[32]
  cell viability: 97.5%
[33]
  cell viability: 104%

## COc1cc2nccc(Oc3ccc(NC(=O)C4(C(=O)Nc5ccc(F)cc5)CC4)cc3)c2cc1OC
[1]
  cell viability: 114%
[2]
  cell viability: 91.5%
[3]
  cell viability: 122%
[4]
  cell viability: 111%
[5]
  cell viability: 115%
[6]
  cell viability: 111%
[7]
  cell viability: 118%
[8]
  cell viability: 113%
[9]
  cell viability: 96.3%
[10]
  cell viability: 71.7%
[11]
  cell viability: 34%
[12]
  cell viability: 112%
[13]
  cell viability: 112%
[14]
  cell viability: 116%
[15]
  cell viability: 117%
[16]
  cell viability: 119%
[17]
  cell viability: 116%
[18]
  cell viability: 112%
[19]
  cell viability: 114%
[20]
  cell viability: 106%
[21]
  cell viability: 82.5%
[22]
  cell viability: 19.7%
[23]
  cell viability: 106%
[24]
  cell viability: 118%
[25]
  cell viability: 120%
[26]
  cell viability: 121%
[27]
  cell viability: 123%
[28]
  cell viability: 124%
[29]
  cell viability: 113%
[30]
  cell viability: 113%
[31]
  cell viability: 101%
[32]
  cell viability: 60.5%
[33]
  cell viability: 28.9%

## C=C(C)[C@@H]1CC[C@]2(C)CC[C@]3(C)[C@H](CC[C@@H]4[C@@]5(C)CC[C@H](O)C(C)(C)[C@@H]5CC[C@]43C)[C@@H]12
[1]
  cell viability: 108%
[2]
  cell viability: 115%
[3]
  cell viability: 116%
[4]
  cell viability: 113%
[5]
  cell viability: 127%
[6]
  cell viability: 134%
[7]
  cell viability: 128%
[8]
  cell viability: 125%
[9]
  cell viability: 126%
[10]
  cell viability: 126%
[11]
  cell viability: 124%
[23]
  cell viability: 104%
[24]
  cell viability: 119%
[25]
  cell viability: 102%
[26]
  cell viability: 115%
[27]
  cell viability: 130%
[28]
  cell viability: 110%
[29]
  cell viability: 128%
[30]
  cell viability: 126%
[31]
  cell viability: 124%
[32]
  cell viability: 119%
[33]
  cell viability: 126%

## ClC1=CC=C(CCCOC/2=N/NC(=O)C(=C2NCC3=CN=CC=C3)/Br)C=C1
[1]
  cell viability: 115%
[2]
  cell viability: 115%
[3]
  cell viability: 113%
[4]
  cell viability: 117%
[5]
  cell viability: 118%
[6]
  cell viability: 110%
[7]
  cell viability: 104%
[8]
  cell viability: 95.5%
[9]
  cell viability: 61.6%
[10]
  cell viability: 35.7%
[11]
  cell viability: 14.4%
[12]
  cell viability: 109%
[13]
  cell viability: 114%
[14]
  cell viability: 110%
[15]
  cell viability: 122%
[16]
  cell viability: 125%
[17]
  cell viability: 124%
[18]
  cell viability: 113%
[19]
  cell viability: 112%
[20]
  cell viability: 96.3%
[21]
  cell viability: 69.6%
[22]
  cell viability: 38.5%
[23]
  cell viability: 113%
[24]
  cell viability: 115%
[25]
  cell viability: 116%
[26]
  cell viability: 110%
[27]
  cell viability: 110%
[28]
  cell viability: 115%
[29]
  cell viability: 106%
[30]
  cell viability: 90.4%
[31]
  cell viability: 56.7%
[32]
  cell viability: 26.9%
[33]
  cell viability: 13.7%

## Cc1c[nH]c(/C=C2\C(=O)Nc3ccccc32)c1CCC(=O)O
[1]
  cell viability: 109%
[2]
  cell viability: 107%
[3]
  cell viability: 111%
[4]
  cell viability: 108%
[5]
  cell viability: 101%
[6]
  cell viability: 111%
[7]
  cell viability: 97.2%
[8]
  cell viability: 96.5%
[9]
  cell viability: 79.2%
[10]
  cell viability: 76.5%
[11]
  cell viability: 79.8%
[12]
  cell viability: 111%
[13]
  cell viability: 108%
[14]
  cell viability: 115%
[15]
  cell viability: 122%
[16]
  cell viability: 103%
[17]
  cell viability: 118%
[18]
  cell viability: 95.2%
[19]
  cell viability: 93.1%
[20]
  cell viability: 67.2%
[21]
  cell viability: 65.8%
[22]
  cell viability: 65.7%
[23]
  cell viability: 122%
[24]
  cell viability: 118%
[25]
  cell viability: 123%
[26]
  cell viability: 127%
[27]
  cell viability: 105%
[28]
  cell viability: 106%
[29]
  cell viability: 94.7%
[30]
  cell viability: 92.4%
[31]
  cell viability: 71.7%
[32]
  cell viability: 67.3%
[33]
  cell viability: 68.7%
